Data reported in patent US6416965B2, “Screening methods for presqualene disphosphate analogs” (Brigham and Women's Hospital, priority 1997, dated 2002).
pKi: −log10 of the molar value.

Assays:
[1] = system: human neutrophils; assay: FMLP-stimulated 1,4,5-inositol triphosphate (IP3) formation as surrogate for phospholipase C activity; format: cell-based; conditions: for inhibition of FMLP-triggered IP3 formation: compound 1 μM, 5 min 37° C., FMLP 100 nM, 10 seconds
Experimental: Neutrophils (10^7/500 μl) were electroporated (1.65 kV/cm, 250 μF, Ω∞, Invitrogen Electroporator VI) at 0° C. in the presence of 10−^9-10−^6 M compound VI, VIII, FDP, FMP, squalene or vehicle (ethanol 0.2%). After electroporation, cells, in cytochrome c (0.7 mg/ml), were exposed (10 minutes, 37° C.) to either cytochalasin b (5 μg/mL) and FMLP (10^−7 M)(a) or PMA ((10^−7 M)(b) and supernatants monitored at […]. Electroporation gave a 49.9% reduction in FMLP-stimulated NADPH oxidase compared to naive cells. Values (FIGS. 4a and 4b) represent the mean±SEM for n≧3, d≧6. For adhesion (FIGS. 4c and 4d), changes in light transmittance were monitored (as in Fiore, S., Nicolaou, K. C., Caulfield, T., Kataoka, H. & Serhan, C. N. Biochem. J. 266, 25-31 (1990), the teachings of which are incorporated herein by reference) after addition of compounds VI, VIII (1.6 μM) or vehicle (0.5 min) and FMLP (0.5-5 μM) (2.5 min). Cell viability remained>99%. Values represent the mean±SEM for n=3, d=9. 1,4,5-inositol-triphosphate levels were determined (Amersham) in fresh PMN (10^7 cells) exposed (5 minutes, 37° C.) to compound VI, compound VIII (1 μM) or vehicle and stimulated with FMLP (10^−7M, 37° C.) (as in FIG. 4e). % Inhibition after 10 second exposure to FMLP is reported as mean±SEM for n=4, d≧8. *p <0.05 in Student's paired t-test compared with control, while “NS” indicates no significant change compared to incubations in the presence of vehicle (ethanol 0.2%) alone. Stereochemistry of PSDP and PSMP (FIG. 4f) were assigned by routine methods (Poulter, C. D. and Rilling, H. C. Acc. Chem. Res. 11, 307-313, (1978), the teachings of which are hereby incorporated by reference).
In addition to PLD, phospholipase C plays a critical role in intracellular signaling via the hydrolysis of inositol lipids to diacyl glyceride (DAG) and inositol trisphosphate (IP3) to effect a cascade of cellular events in response to pro-inflammatory stimuli. DAG activates protein kinases and is converted, in part, to phosphatidic acid by DAG kinase. Therefore, PLC together with DAG kinase provides a second major source of phosphatidic acid in human neutrophils (Agwu, DE, et al., Journal of Clinical Investigation 1991; 88:531). […] To this end, the impact of PSDP on fMLP-stimulated IP3 formation as a surrogate for phospholipase C activity was examined (FIG. 4e).
Amersham's D-myo-inositol 1,4,5-trisphosphate (IP3) [^3H] assay was used for this procedure (Amersham code TRK 1000, including product assay, the contents of which are incorporated herein by reference). The assay is based on procedures developed by Takata S. et al. J. Clin. Invest. 93:499 (1994) and Dillon S. B. et al. J. Biol. Chem. 262:11546 (1987), the contents of which are incorporated herein by reference in their entirety. [drawing 24] […]

[2] = molecular target: Phospholipase D (PLD); assay: Phospholipase D inhibition, choline release, Lineweaver-Burk analysis; format: biochemical; conditions: PLD 3 units/125 μL, phosphatidyl choline substrate, 30° C., pH 7.5
Source text: Phospholipase D (PLD) plays a central role in cellular activation in diverse cell types via the release of the bioactive […], phosphatidate. Several agonists operating through different classes of receptors have been defined that stimulate cellular PLD activity. No known endogenous regulators of PLD have been identified. Activation of neutrophils leads to an increase in intracellular phosphatidic acid that is generated predominantly via the hydrolysis of phosphatidyl choline by phospholipase D (Agwu, DE, et al., Journal of Clinical Investigation 1991; 88:531). Because PSDP inhibited phosphatidate mediated superoxide anion generation in human neutrophil sonicates (Levy, BD, et al., Nature 1997; 389:985), its impact on phospholipase D was determined. A purified enzyme was utilized to directly evaluate the action of PSDP with PLD. Lineweaver-Burk plots for PLD (3 units/125 μL; EC 3.1.4.4, Sigma Chemical Co.) in the presence of EtOH (0.2%) or increasing concentrations of PSDP are reported in FIG. 5. After addition of PSDP to PLD (5 min, 30° C.), phosphatidyl choline (lecithin) in 60 mM Tris/HCl+10 mM CaCl2, pH 7.5 was added (30° C.) and reactions were terminated at 30 second intervals (t0-90 sec) with Tris-HCl (1 M) plus EDTA (50 mM). Choline release was quantitated as in Abousalham A. et al. Biochimica et Biophysica Acta 1;1158 (1993). […]

## CC(C)=CCC/C(C)=C/CC/C(C)=C/C1C(COP(=O)(O)OP(=O)(O)O)C1(C)CC/C=C(\C)CCC=C(C)C (stereo in doubt) [Compound VI, presqualene diphosphate]
[1]
  inhibition of FMLP-triggered IP3 formation: 56%
[1]; listed as PSDP
  inhibition of FMLP-triggered IP3 formation: > 50%
[1]; nM-μM amounts
  inhibition of 1,4,5-inositol-triphosphate formation: inhibited
[2]
  pKi: > 7.00
